We go through one compound from patent US10065951B2, “Small molecule transcription modulators of bromodomains” (Icahn School of Medicine at Mount Sinai, priority 2014, dated 2018).

Test [1] relates to acetyl-K18 H3/total H3. Put plainly: Histone H3 Lys18 acetylation in lymphnodes and spinal cord of EAE mice (western blot). To be noted: nanomolar 4c (2.4 μg/Kg), day 18 and day 38. The test is classed as in vivo, mouse. As to the method:
Quantification of western blots results. The bars show the ratio between acetyl-K18 H3/total H3 in vehicle-treated controls (gray) and 4c-treated mice (white).
One of the difficulties of such an experimental design was the fact that it is difficult to exclude the possibility that the faster recovery was due to decreased inflammation, rather than a direct enhancement of the repair potential of endogenous progenitors in the CNS. To address whether the effect of 2.4 μg/Kg 4c was due to its effect on the peripheral organs or the CNS, histones were extracted from lymphnodes and spinal cords at day 18 (i.e. peak of clinical symptoms) and at day 38 (the end of the recovery period).
These extracts were then processed for western blot for acetylated Lys 18 of histone H3 and total histone H3, the former of which is linked to gene transcriptional activation.

For test [2], the system named is CBP occupancy at promoters (Lmnb1 transcription start site). Put plainly: Chromatin immunoprecipitation (ChIP) of CBP and H3K18ac at gene promoters. Format: cell-based. To be noted: 10 nM, one day. As to the method: FIG. 9 illustrates the ChIP analysis of samples isolated from cells cultured as previously described and then precipitated using antibodies specific for CBP, and for H3K18ac. A mock ChIP (No Antibody) was used as negative control. The amount of chromatin recovered at the Lmnb1 transcription start site was measured by qPCR and expressed as percentage of input for each sample. Error bars are s.e.m. of three independent experiments (*p<0.05, **p<0.01 two-tail t test).
Oligodendrocyte progenitors (4×10^6) were crosslinked in 1% formaldehyde, lysed in nuclear lysis buffer (50 mM Tris-HCL (pH 8.0), 10 mM EDTA, 1% SDS, Protease Inhibitors (Roche) and PMSF) and sonicated using a Bioruptor (Diagenode) sonicator to produce chromatin with an average length of 500 base pairs. Chromatin was aliquoted and immunopreciptiated using protein A magnetic beads (Dynabeads-Invitrogen 100.01D) coated with 2 μg of antibodies to CBP (santa cruz sc-369), H3-K9ac (abcam ab4441), H3-K9ac and K14 (millipore 06-599), H3-K18ac (abcam ab1191). A mock immunopreciptitation was set-up as a control (No antibody). Immunoprecipitations were carried out overnight. […]
Quantitative PCR was performed using primers to detect the transcriptional start site of the Lmnb1 promoter; forward 5′-[…] […]

Test [3] deals with p53-induced p21 luciferase activity in U2OS cells. Put plainly: p53-dependent p21 luciferase activity in U2OS cells under doxorubicin treatment. Format: cell-based, human. As to the method:
The luciferase activity was normalized to renilla luciferase as a control. The IC50 was calculated using PRISM software.
The activity of the pyrido-indole compounds (FIG. 10) were evaluated for their ability to inhibit p53 activation in human osteosarcoma (U2OS) cells. The p53 activation was induced by DNA damage upon treatment of doxorubicin, and effects of compound treatment were measured by p53-dependent p21 luciferase activity. U2OS Cells were transfected with p21 luciferase (1 μg) and renilla luciferase (100 ng) vectors in six-well plate format using Fugene 6 (Roche). 1.1 μg of vector was incubated with […] of Fugene 6 reagent for 30 min. After 3-4 hours of transfection, cell were treated with compounds overnight, and then exposed to 300 ng of doxorubicin for the next 24 hours. In these experiments, DMSO, transfected cells with empty vectors, and cells without doxorubicin were used as controls. The DMSO concentration was maintained at 0.01%. Transfected cells with doxorubicin treatment were used as a positive control. The luciferase activity was estimated by following the manufacturer's instruction (Promega) in a luminometer. Both active and passive lysis of cells yielded consistent results. The inhibitory activity (IC50) of a small molecule on p21 luciferase activity was obtained from the average of three biological replicates using PRISM software.

Test [4] has as its system MOG-induced EAE. Put plainly: MOG-induced EAE in mice, 7-day treatment started after onset of clinical symptoms. The test is classed as in vivo, mouse. To be noted: treatment from day 18 for 7 days, mice with score 2.5-3.0; after 3-4 days of treatment. As to the method: FIG. 14 illustrates seven-day 4c treatment accelerates recovery from MOG-induced EAE even if started AFTER the onset of clinical symptoms.
This study was conducted to determine whether the effectiveness of 4c can be observed in animals even if started once the disease has progressed to peak clinical symptoms. For this reason, MOG-dependent EAE in mice was induced and the animals scored daily. On day 18 post-immunization mice with a score of 2.5-3.0 (paralysis of one leg and weakness of the other to paralysis of both hindlimbs) were selected and divided into two groups receiving either 4c or vehicle treatment for 7 days.

Turning to `CC(=O)NCCCCn1c2c(c3ccccc31)C(=O)NCC2` [4c, 2,3,4,5-tetrahydro-5-(4′-acetamidobutyl)-1H-pyrido-[4,3-b]indol-1-one], in test [1], the “histone acetylation (acetyl-K18 H3/total H3) in spinal cord and lymphnode” value is on record as “in the spinal cord (FIG. 13B), but not in the lymphnode”. Further, in test [2], the “acetylation of histone H3 at lysine 18 (H3K18ac) at promoters” value is given as “but not the acetylation of histone H3 at lysine 18 (H3K18ac) was decreased” and the “association of CBP with promoters” value was “decreased”. Further, in test [3], the “inhibition of p53-induced p21 activation” value is listed as “most potent effect”. In addition, the “recovery when treatment started at peak clinical symptoms” value in test [4] is given as “showed signs of recovery”.
